The numbers were not newly measured in patent US20230332232A1, “COMPOSITIONS AND METHODS FOR DIAGNOSING AND TREATING A DYSTONIA” (Duke University, priority 2020, published 2023), which cites them from elsewhere.

Molecules are shown by their SMILES.

One data set deals with ΔE Torsin1a. The conditions noted are these: ΔE Torsin1a abnormal punctate pattern; cited from earlier work.
In data set [1] the test system is DYT1 patient-derived fibroblasts. The conditions noted are these: cited from earlier work.

For the compound `O=C(O)CCCc1ccccc1` [PBA, phenylbutyric acid], in the data set on ΔE Torsin1a, the punctate pathology result is recorded as “significantly reduced punctate pathology”. Besides, the “indicators of UPR activation” value in data set [1] was “reduces indicators of UPR activation”.
